According to US20260226073A1 (AURIGENE ONCOLOGY LIMITED, priority 2023, published 2026):

Columns and labels:
[1] = target: T1, human recombinant CBL-b (human Biotin CBL-b recombinant protein a.a. 39-426) (Homo sapiens, UniProt Q13191); assay: Biochemical assay for CBL-b inhibition (ligand displacement TR-FRET); format: binding; details: 50 nM CBL-b, 0.3 μM Bodipy FL-Probe, read-out: IC50 (CBL-b inhibition, group)
T1 construct: human Biotin CBL-b recombinant protein a.a; 39-426; Biotin (biotinylated); made in house
T1 sequence (Q13191 39-426): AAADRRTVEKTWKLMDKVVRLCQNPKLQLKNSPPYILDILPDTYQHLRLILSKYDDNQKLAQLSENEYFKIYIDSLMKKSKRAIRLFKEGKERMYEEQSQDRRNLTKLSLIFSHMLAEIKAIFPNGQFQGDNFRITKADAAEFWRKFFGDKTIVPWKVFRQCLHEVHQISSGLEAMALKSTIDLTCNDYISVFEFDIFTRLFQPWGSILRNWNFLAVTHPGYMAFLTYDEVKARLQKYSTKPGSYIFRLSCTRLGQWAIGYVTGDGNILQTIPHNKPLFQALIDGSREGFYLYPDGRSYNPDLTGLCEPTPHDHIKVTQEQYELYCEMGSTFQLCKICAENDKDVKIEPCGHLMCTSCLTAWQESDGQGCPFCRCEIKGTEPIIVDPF
Procedure, shortened: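 Ligand-displacement TR-FRET: 0.3 μM Bodipy FL probe competes with compound for 50 nM biotin-CBL-b (aa 39-426) after a 60 min RT compound pre-incubation; terbium-streptavidin detection, 60 min each step. Dose-response sigmoidal fitting gave IC50 and % maximum inhibition.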

[2] = test system: NFAT signaling pathway in Jurkat NFAT reporter cells; assay: Jurkat NFAT reporter assay; format: cell-based; details: Homo sapiens, 30 min with compound, then soluble anti-human CD3/CD28 antibody for 6 hours, luciferase readout, read-out: EC50 (Group)
Procedure, shortened: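 Results are expressed as fold change relative to stimulated, inhibitor-free cells. Stimulation was 6 h with soluble anti-human CD3/CD28 antibody after a 30-min exposure of 1×10^5 NFAT-RE luciferase Jurkat reporter cells per well to the Cbl-b inhibitor; signal read by Bio-Glo bioluminescence.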

[3] = test system: human PBMCs stimulated with anti-CD3/CD28 Dynabeads; assay: Human PBMC cytokine release assay (IL-2 by ELISA); format: cell-based; details: Dynabeads CD3/CD28 48 hours, IL-2 ELISA, fold change over baseline, read-out: EC50 (human PBMC cytokine release, group)
Procedure: Peripheral blood mononuclear cells (PBMC) were isolated from healthy human donor using Histopaque (Sigma). The Cbl-inhibitor was added to 1×10^5 cells per well and the plate was incubated for 30 minutes at 37° C. in 5% CO2 at different concentrations with a final DMSO concentration of <0.5%. Following incubation with the Cbl-b inhibitor, human PBMCs were stimulated with Dynabeads™ Human T-Activator CD3/CD28 (Thermo Fisher Scientific) for 48 hours. Cell free supernatant were collected after end of incubation and were analyzed for cytokine secretion, including IL-2 by ELISA (R&D Systems). Readouts were reported as fold change over baseline. Here, baseline was the measurement obtained from human PBMCs stimulated with Dynabeads™ Human T-Activator CD3/CD28, where the cells were not incubated with a Cbl-b inhibitor.

SMILES | IC50 [1] [nM] | EC50 [2] [nM] | EC50 [3] [nM]
C[C@H]1CCCN(Cc2cc(N3Cc4ccc(C5(Cc6nncn6C)COC5)cc4C3=O)cc(C(F)(F)F)c2)C1 [Compound 1, (S)-6-(3-((4-Methyl-4H-1,2,4-triazol-3-yl)methyl)oxetan-3-yl)-2-(3-((3-methylpiperidin-1-yl)methyl)-5-(trifluoromethyl)phenyl)isoindolin-1-one] | 80 to 300 | < 300 | < 5000
C[C@H]1CCCN(Cc2cc(N3Cc4ccc(C5(Cc6nncn6C)COC5)cc4C3=O)nc(C(F)(F)F)c2)C1 [Compound 2] | < 80 | < 300 | < 5000
Cc1cc(CN2CCC[C@H](C)C2)cc(N2Cc3ccc(C4(Cc5nncn5C)COC4)cc3C2=O)c1 [Compound 4, (S)-6-(3-((4-Methyl-4H-1,2,4-triazol-3-yl)methyl)oxetan-3-yl)-2-(3-methyl-5-((3-methylpiperidin-1-yl)methyl)phenyl)isoindolin-1-one] | < 80 | < 300 | < 5000
C[C@H]1CCCN(Cc2cc(Cl)cc(N3Cc4ccc(C5(Cc6nncn6C)COC5)cc4C3=O)c2)C1 [Compound 6, (S)-2-(3-Chloro-5-((3-methylpiperidin-1-yl)methyl)phenyl)-6-(3-((4-methyl-4H-1,2,4-triazol-3-yl)methyl)oxetan-3-yl)isoindolin-1-one] | < 80 | < 300 | < 5000
CCC(C)NCc1cc(C)nc(N2Cc3ccc(-c4ccc(F)cc4-c4nncn4C)cc3C2=O)c1 (stereo not shown) [Compound 295, 2-(4-((sec-Butylamino)methyl)-6-methylpyridin-2-yl)-6-(4-fluoro-2-(4-methyl-4H-1,2,4-triazol-3-yl)phenyl)isoindolin-1-one] | < 80 | < 300 | –
Cc1cc(CNCC2CC2)cc(N2Cc3c(F)cc(-c4ccc(F)cc4-c4nncn4C)cc3C2=O)n1 [Compound 296] | < 80 | 1000 to 10000 | –
Cc1cc(CNC(C2CC2)C2CC2)cc(N2Cc3ccc(-c4ccc(F)cc4-c4nncn4C)cc3C2=O)n1 [Compound 298, 2-(4-(((Dicyclopropylmethyl)amino)methyl)-6-methylpyridin-2-yl)-6-(4-fluoro-2-(4-methyl-4H-1,2,4-triazol-3-yl)phenyl)isoindolin-1-one] | < 80 | < 300 | –
Cc1cc(CNCCC(C)C)cc(N2Cc3ccc(-c4ccc(F)cc4-c4nncn4C)cc3C2=O)n1 [Compound 300, 6-(4-Fluoro-2-(4-methyl-4H-1,2,4-triazol-3-yl)phenyl)-2-(4-((isopentylamino)-methyl)-6-methylpyridin-2-yl)isoindolin-1-one] | < 80 | 300 to 1000 | –
COCCNCc1cc(C)nc(N2Cc3ccc(-c4ccc(F)cc4-c4nncn4C)cc3C2=O)c1 [Compound 302, 6-(4-Fluoro-2-(4-methyl-4H-1,2,4-triazol-3-yl)phenyl)-2-(4-(((2-methoxyethyl)-amino)methyl)-6-methylpyridin-2-yl)isoindolin-1-one] | < 80 | 300 to 1000 | –
Cc1cc(CNCC(C)(C)C)cc(N2Cc3ccc(-c4ccc(F)cc4-c4nncn4C)cc3C2=O)n1 [Compound 303] | < 80 | 300 to 1000 | –
Cc1cc(CNCC2CC2)cc(N2Cc3ccc(-c4ccc(F)cc4-c4nccn4C)cc3C2=O)n1 [Compound 304] | < 80 | 1000 to 10000 | –
Cc1cc(CNCC(C)C)cc(N2Cc3ccc(-c4ccc(F)cc4-c4nncn4C)cc3C2=O)n1 [Compound 305] | < 80 | < 300 | –
Cc1cc(CNCCC2CC2)cc(N2Cc3ccc(-c4ccc(F)cc4-c4nncn4C)cc3C2=O)n1 [Compound 307, 2-(4-(((2-Cyclopropylethyl)amino)methyl)-6-methylpyridin-2-yl)-6-(4-fluoro-2-(4-methyl-4H-1,2,4-triazol-3-yl)phenyl)isoindolin-1-one] | < 80 | < 300 | –
Cc1cc(CNCC2(CO)CCC2)cc(N2Cc3ccc(-c4ccc(F)cc4-c4nncn4C)cc3C2=O)n1 [Compound 308] | < 80 | 1000 to 10000 | –
Cc1cc(CNCC(C)(C)O)cc(N2Cc3ccc(-c4ccc(F)cc4-c4nncn4C)cc3C2=O)n1 [Compound 309, 6-(4-Fluoro-2-(4-methyl-4H-1,2,4-triazol-3-yl)phenyl)-2-(4-(((2-hydroxy-2-methylpropyl)amino)methyl)-6-methylpyridin-2-yl)isoindolin-1-one] | < 80 | < 300 | –
[2H]C([2H])([2H])n1cnnc1-c1cc(F)ccc1-c1ccc2c(c1)C(=O)N(c1cc(CNCC3CC3)cc(C)n1)C2 [Compound 310, 2-(4-(((Cyclopropylmethyl)amino)methyl)-6-methylpyridin-2-yl)-6-(4-fluoro-2-(4-(methyl-d3)-4H-1,2,4-triazol-3-yl)phenyl)isoindolin-1-one] | < 80 | < 300 | –
Cc1cc(CNCC2(O)CC2)cc(N2Cc3ccc(-c4ccc(F)cc4-c4nncn4C)cc3C2=O)n1 [Compound 311] | < 80 | 1000 to 10000 | –
Cc1cc(CN[C@@H]2CCC[C@H]2O)cc(N2Cc3ccc(-c4ccc(F)cc4-c4nncn4C)cc3C2=O)n1 [Compound 314, 6-(4-Fluoro-2-(4-methyl-4H-1,2,4-triazol-3-yl)phenyl)-2-(4-((((1R,2R)-2-hydroxycyclopentyl)amino)methyl)-6-methylpyridin-2-yl)isoindolin-1-one] | < 80 | 300 to 1000 | –
Cc1cc(CN[C@@H](CO)C(C)C)cc(N2Cc3ccc(-c4ccc(F)cc4-c4nncn4C)cc3C2=O)n1 [Compound 315, (R)-6-(4-Fluoro-2-(4-methyl-4H-1,2,4-triazol-3-yl)phenyl)-2-(4-(((1-hydroxy-3-methylbutan-2-yl)amino)methyl)-6-methylpyridin-2-yl)isoindolin-1-one] | < 80 | < 300 | –
Cc1cc(CNCC2(O)CCCC2)cc(N2Cc3ccc(-c4ccc(F)cc4-c4nncn4C)cc3C2=O)n1 [Compound 319, 6-(4-Fluoro-2-(4-methyl-4H-1,2,4-triazol-3-yl)phenyl)-2-(4-((((1-hydroxy-cyclopentyl)methyl)amino)methyl)-6-methylpyridin-2-yl)isoindolin-1-one] | < 80 | < 300 | –
Cc1cc(CNCC2CC2)cc(N2Cc3ccc(-c4ccc(F)cc4-c4nncn4C4CC4)cc3C2=O)n1 [Compound 320, 6-(2-(4-Cyclopropyl-4H-1,2,4-triazol-3-yl)-4-fluorophenyl)-2-(4-(((cyclopropyl-methyl)amino)methyl)-6-methylpyridin-2-yl)isoindolin-1-one] | < 80 | 300 to 1000 | –
CCCNCc1cc(C)nc(N2Cc3ccc(-c4ccc(F)cc4-c4nncn4C)cc3C2=O)c1 [Compound 323, 6-(4-Fluoro-2-(4-methyl-4H-1,2,4-triazol-3-yl)phenyl)-2-(6-methyl-4-((propyl-amino)methyl)pyridin-2-yl)isoindolin-1-one] | < 80 | < 300 | –
Cc1cc(CNCC2CCO2)cc(N2Cc3ccc(-c4ccc(F)cc4-c4nncn4C)cc3C2=O)n1 (stereo not shown) [Compound 325, 6-(4-Fluoro-2-(4-methyl-4H-1,2,4-triazol-3-yl)phenyl)-2-(6-methyl-4-(((oxetan-2-ylmethyl)amino)methyl)pyridin-2-yl)isoindolin-1-one] | < 80 | 1000 to 10000 | –
Cc1cc(CNCCC(F)(F)F)cc(N2Cc3ccc(-c4ccc(F)cc4-c4nncn4C)cc3C2=O)n1 [Compound 326, 6-(4-Fluoro-2-(4-methyl-4H-1,2,4-triazol-3-yl)phenyl)-2-(6-methyl-4-(((3,3,3-trifluoropropyl)amino)methyl)pyridin-2-yl)isoindolin-1-one] | < 80 | 1000 to 10000 | –
Cc1cc(CNCCCC(F)(F)F)cc(N2Cc3ccc(-c4ccc(F)cc4-c4nncn4C)cc3C2=O)n1 [Compound 328, 6-(4-Fluoro-2-(4-methyl-4H-1,2,4-triazol-3-yl)phenyl)-2-(6-methyl-4-(((4,4,4-trifluorobutyl)amino)methyl)pyridin-2-yl)isoindolin-1-one] | < 80 | 300 to 1000 | –
Cc1cc(CNCC2CCCC2)cc(N2Cc3ccc(-c4ccc(F)cc4-c4nncn4C)cc3C2=O)n1 [Compound 329, 2-(4-(((Cyclopentylmethyl)amino)methyl)-6-methylpyridin-2-yl)-6-(4-fluoro-2-(4-methyl-4H-1,2,4-triazol-3-yl)phenyl)isoindolin-1-one] | < 80 | < 300 | –
Cc1nc(N2Cc3ccc(-c4ccc(F)cc4-c4nncn4C)cc3C2=O)cc(CNCC2CC2)c1C(F)(F)F [Compound 337, 2-(4-(((Cyclopropylmethyl)amino)methyl)-6-methyl-5-(trifluoromethyl)-pyridin-2-yl)-6-(4-fluoro-2-(4-methyl-4H-1,2,4-triazol-3-yl)phenyl)isoindolin-1-one] | < 80 | 1000 to 10000 | –
